Measurements reported in article PMC11240139, “Exploring the antitumor potential of novel quinoline derivatives via tubulin polymerization inhibition in breast cancer; design, synthesis and molecular docking” (RSC Advances, 2024).

What was measured:
Assay in all cases: NCI-60 SRB cytotoxicity screen
Format in all cases: cell-based
RPMI-8226 (leukemia) = test system: RPMI-8226 (leukemia)
[1] = test system: A549/ATCC (non-small cell lung cancer)
[2] = test system: HOP-92 (non-small cell lung cancer)
SN12C (renal cancer) = test system: SN12C (renal cancer)
SK-MEL-5 (melanoma) = test system: SK-MEL-5 (melanoma)
HCC-2998 (colon cancer) = test system: HCC-2998 (colon cancer)
HL-60(TB) (leukemia) = test system: HL-60(TB) (leukemia)
SNB-75 (CNS cancer) = test system: SNB-75 (CNS cancer)
CAKI-1 (renal cancer) = test system: CAKI-1 (renal cancer)
OVCAR-8 (ovarian cancer) = test system: OVCAR-8 (ovarian cancer)
M14 (melanoma) = test system: M14 (melanoma)
K-562 (leukemia) = test system: K-562 (leukemia)
SK-MEL-28 (melanoma) = test system: SK-MEL-28 (melanoma)
[3] = test system: NCI-H322M (non-small cell lung cancer)
U251 (CNS cancer) = test system: U251 (CNS cancer)
MDA-MB-435 (melanoma) = test system: MDA-MB-435 (melanoma)
[4] = test system: NCI-H460 (non-small cell lung cancer)
COLO 205 (colon cancer) = test system: COLO 205 (colon cancer)
[5] = Homo sapiens, single dose 10 μM, read-out: growth inhibition (GI%)
[6] = Homo sapiens, HOP-92, five-dose assay
[7] = Homo sapiens, SK-MEL-5, five-dose assay
[8] = Homo sapiens, HCC-2998, five-dose assay
[9] = Homo sapiens, M14, five-dose assay
[10] = Homo sapiens, SK-MEL-28, five-dose assay
[11] = Homo sapiens, U-251, U251, five-dose assay
[12] = Homo sapiens, NCI-H460, five-dose assay
[13] = Homo sapiens, COLO 205, five-dose assay

Structure (SMILES): CCc1cccc2cc(-c3cc(-c4cc(OC)c(OC)c(OC)c4)[nH]c(=O)c3C#N)c(Cl)nc12 [Compound 4c, 4-(2-Chloro-8-ethylquinolin-3-yl)-2-oxo-6-(3,4,5-trimethoxyphenyl)-1,2-dihydropyridine-3-carbonitrile]
- GI50 (RPMI-8226 (leukemia); Homo sapiens, RPMI-8226, five-dose assay): 5.16 µM
- CC50 (RPMI-8226 (leukemia); Homo sapiens, RPMI-8226, five-dose assay, read-out: LC50 (the source's name)): > 100 µM
- inhibition at 10 µM (RPMI-8226 (leukemia); Homo sapiens, RPMI-8226, single dose 10 μM, read-out: growth inhibition (GI%)): 74.5%
- TGI (RPMI-8226 (leukemia); RPMI-8226, five-dose assay): >100 µM
- GI50 ([1]; Homo sapiens, five-dose assay): 12.2 µM
- CC50 ([1]; Homo sapiens, five-dose assay, read-out: LC50 (the source's name)): > 100 µM
- inhibition at 10 µM [1, 5]: 88.2%
- TGI ([1]; five-dose assay): 48.70 µM
- TGI ([2]; HOP-92, five-dose assay): 9.68 µM
- growth inhibition (GI%) ([2]; HOP-92, single dose 10 μM): lethal effect
- GI50 [2, 6]: 2370 nM
- LC50 (lethal concentration 50) [2, 6]: > 100 µM
- inhibition at 10 µM ([2]; Homo sapiens, HOP-92, single dose 10 μM, read-out: growth inhibition (GI%)): > 100%
- GI50 (SN12C (renal cancer); Homo sapiens, five-dose assay): 10.3 µM
- LC50 (concentration killing 50% of cells) (SN12C (renal cancer); Homo sapiens, five-dose assay): 61.8 µM
- inhibition at 10 µM (SN12C (renal cancer); [5]): > 100%
- TGI (SN12C (renal cancer); five-dose assay): 25.20 µM
- growth inhibition (GI%) (SN12C (renal cancer); single dose 10 μM): lethal effect
- GI50 (SK-MEL-5 (melanoma); [7]): 17.5 µM
- LC50 (SK-MEL-5 (melanoma); [7]): > 100 µM
- inhibition at 10 µM (SK-MEL-5 (melanoma); Homo sapiens, SK-MEL-5, single dose 10 μM, read-out: growth inhibition (GI%)): 78.6%
- TGI (SK-MEL-5 (melanoma); SK-MEL-5, five-dose assay): 90.20 µM
- TGI (HCC-2998 (colon cancer); HCC-2998, five-dose assay): >100 µM
- GI50 (HCC-2998 (colon cancer); [8]): 35.7 µM
- LC50 (50% lethal concentration) (HCC-2998 (colon cancer); [8]): > 100 µM
- inhibition at 10 µM (HCC-2998 (colon cancer); Homo sapiens, HCC-2998, single dose 10 μM, read-out: growth inhibition (GI%)): 47%
- GI50 (HL-60(TB) (leukemia); Homo sapiens, five-dose assay): 13.4 µM
- LC50 (HL-60(TB) (leukemia); Homo sapiens, five-dose assay): > 100 µM
- inhibition at 10 µM (HL-60(TB) (leukemia); [5]): 71.3%
- TGI (HL-60(TB) (leukemia); five-dose assay): >100 µM
- inhibition at 10 µM (SNB-75 (CNS cancer); Homo sapiens, SNB-75, SNB-75, single dose 10 μM, read-out: growth inhibition (GI%)): > 100%
- GI50 (SNB-75 (CNS cancer); Homo sapiens, SNB-75, five-dose assay): 2380 nM
- CC50 (SNB-75 (CNS cancer); Homo sapiens, SNB-75, five-dose assay, read-out: LC50 (the source's name)): 52.6 µM
- TGI (SNB-75 (CNS cancer); SNB-75, five-dose assay): 16.90 µM
- TGI (CAKI-1 (renal cancer); CAKI-1, five-dose assay): 22.90 µM
- GI50 (CAKI-1 (renal cancer); Homo sapiens, CAKI-1, five-dose assay): 10.7 µM
- CC50 (CAKI-1 (renal cancer); Homo sapiens, CAKI-1, five-dose assay, read-out: LC50 (the source's name)): 49.2 µM
- inhibition at 10 µM (CAKI-1 (renal cancer); Homo sapiens, CAKI-1, single dose 10 μM, read-out: growth inhibition (GI%)): 95.1%
- GI50 (OVCAR-8 (ovarian cancer); Homo sapiens, OVCAR-8, five-dose assay): 18.5 µM
- CC50 (OVCAR-8 (ovarian cancer); Homo sapiens, OVCAR-8, five-dose assay, read-out: LC50 (the source's name)): > 100 µM
- inhibition at 10 µM (OVCAR-8 (ovarian cancer); Homo sapiens, OVCAR-8, single dose 10 μM, read-out: growth inhibition (GI%)): 92.1%
- TGI (OVCAR-8 (ovarian cancer); OVCAR-8, five-dose assay): 93.60 µM
- GI50 (M14 (melanoma); [9]): 29.7 µM
- LC50 (M14 (melanoma); [9]): > 100 µM
- inhibition at 10 µM (M14 (melanoma); Homo sapiens, M14, single dose 10 μM, read-out: growth inhibition (GI%)): 42.8%
- TGI (M14 (melanoma); M14, five-dose assay): >100 µM
- GI50 (K-562 (leukemia); Homo sapiens, K562, K-562, five-dose assay): 7.72 µM
- CC50 (K-562 (leukemia); Homo sapiens, K562, K-562, five-dose assay, read-out: LC50 (the source's name)): > 100 µM
- inhibition at 10 µM (K-562 (leukemia); Homo sapiens, K-652 [sic], single dose 10 μM, read-out: growth inhibition (GI%)): 31.4%
- TGI (K-562 (leukemia); K-562, five-dose assay): 43.80 µM
- GI50 (SK-MEL-28 (melanoma); [10]): 21.1 µM
- LC50 (concentration causing 50% net cell kill) (SK-MEL-28 (melanoma); [10]): > 100 µM
- inhibition at 10 µM (SK-MEL-28 (melanoma); Homo sapiens, SK-MEL-28, single dose 10 μM, read-out: growth inhibition (GI%)): 68.9%
- TGI (SK-MEL-28 (melanoma); SK-MEL-28, five-dose assay): >100 µM
- GI50 ([3]; Homo sapiens, five-dose assay): 10.5 µM
- LC50 (concentration causing 50% net cell kill) ([3]; Homo sapiens, five-dose assay): > 100 µM
- inhibition at 10 µM [3, 5]: 53.7%
- TGI ([3]; five-dose assay): >100 µM
- GI50 (U251 (CNS cancer); [11]): 10.8 µM
- LC50 (concentration killing 50% of cells) (U251 (CNS cancer); [11]): 74.9 µM
- inhibition at 10 µM (U251 (CNS cancer); Homo sapiens, U-251, U251, single dose 10 μM, read-out: growth inhibition (GI%)): > 100%
- TGI (U251 (CNS cancer); U251, five-dose assay): 28.40 µM
- growth inhibition (GI%) (U251 (CNS cancer); U251, single dose 10 μM): lethal effect
- GI50 (MDA-MB-435 (melanoma); Homo sapiens, MDA-MB-435): 32.6 µM
- inhibition at 10 µM (MDA-MB-435 (melanoma); Homo sapiens, MDA-MB-435, read-out: growth inhibition (GI%)): 56.5%
- LC50 (lethal concentration, 50% net cell kill) (MDA-MB-435 (melanoma); Homo sapiens, MDA-MB-435, five-dose assay): > 100 µM
- TGI (MDA-MB-435 (melanoma); MDA-MB-435, five-dose assay): >100 µM
- GI50 [4, 12]: 16.1 µM
- LC50 (50% lethal concentration) [4, 12]: > 100 µM
- inhibition at 10 µM ([4]; Homo sapiens, NCI-H460, single dose 10 μM, read-out: growth inhibition (GI%)): 58.6%
- TGI ([4]; NCI-H460, five-dose assay): 41.80 µM
- TGI (COLO 205 (colon cancer); COLO 205, five-dose assay): >100 µM
- GI50 (COLO 205 (colon cancer); [13]): 45.6 µM
- LC50 (COLO 205 (colon cancer); [13]): > 100 µM
- inhibition at 10 µM (COLO 205 (colon cancer); Homo sapiens, COLO 205, single dose 10 μM, read-out: growth inhibition (GI%)): < 10%
